Measurements taken from US12577213B2 (NINGBO COMBIREG PHARMACEUTICAL TECHNOLOGY CO., LTD., priority 2020, dated 2026).

Key:
HCT116 (colon cancer) = assay: NCI method SRB growth inhibition, HCT116; assay type: cell-based; details: Homo sapiens, HCT-116; HCT116, treated 48 hours, SRB stain
In short: (§1)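 NCI 60-line protocol, 48 h compound exposure; SRB stain, OD 515 nm. Growth % = (Ti−Tz)/(C−Tz)×100 when Ti≥Tz, else (Ti−Tz)/Tz×100. GI50 at 50, TGI at Ti=Tz, LC50 at −50.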

K562 (leukemia) = assay: NCI method SRB growth inhibition, K562; assay type: cell-based; details: Homo sapiens; K562, treated 48 hours, SRB stain
In short: as §1

PC-3 (prostate cancer) = assay: NCI method SRB growth inhibition, PC-3; assay type: cell-based; details: Homo sapiens; PC-3, treated 48 hours, SRB stain
In short: as §1

[1] = test system: xenograft of human colon cancer HCT-116 in nude mice; assay: Xenograft tumor growth inhibition, HCT-116; assay type: in vivo, BALB/c nude mice; details: for Relative tumor proliferation rate (%) / Tumor weight inhibition rate (%): HCT116 xenograft; for efficacy evaluation on growth of HCT-116 xenograft (in words): criteria: T/C (%)≤40 and P<0.05 is effective
Procedure: (§2) The embodiment compound was prepared as a 40× stock solution of DMSO and diluted to the administered concentration with saline containing 2.5% Tween 80 (Tween 80) used before;
(§3) Male BALB/c nude mice, 4-5 weeks old, were purchased from Beijing Vital River Laboratory Animal Technology Co., Ltd, with a license No. SCXK(Beijing)2012-0001, and the mice were bred in the SPF-class laboratory animal center of Tsinghua University. The tumor lines used in the experiment were: xenograft of human lung cancer NCI-H522 in nude mice, xenograft of human colon cancer HCT-116 in nude mice.
(§4) Tumor-bearing animals with good tumor growth and overall condition were selected and sacrificed by cervical dislocation. The tumors were removed under aseptic condition, cut into tumors with 2-3 mm diameter by a scalpel, and inoculated subcutaneously behind the armpit of nude mice by trocar. The tumors grew naturally and were randomly grouped after the tumor volume grew to 105 mm^3, and the administration date of grouping was set as D0 (Day 0).
(§5) Grouping experiment, with 7-9 animals in each group, starting from now on, administration was started according to the weight of the animals. During the administration process, the long, short diameter of the tumors and weight of animals were measured every 2-3 days, and the tumor size was calculated by the formula: (½)×long diameter×(short diameter)^2, and the experiment was ended on the 27th day (D27) after grouping. At the end of the experiment, the animals were sacrificed by cervical dislocation, the tumors were peeled off and weighed, and the inhibitory rates of the drugs on tumor growth were calculated. Tumor volume (TV) and relative tumor volume (RTV) were calculated. T test was used to compare the statistical significance of the differences in tumor weight, tumor volume and RTV of the animals in each group.
(§6) Calculation formulas are as follows: average tumor weight in the vehicle control group−average tumor weight in the treatment group Tumor inhibition rate (%)=(average tumor weight in the vehicle control group−average tumor weight in the treatment group)[…](average tumor weight in the vehicle control)×100. Tumor volume (TV)=(length×width^2)/2. Relative tumor volume (RTV)=Vt/Vo (wherein, Vo is the TV measured at the time of grouping and administration, and Vt is the TV at each subsequent measurement).
(§7) [formula] • Efficacy evaluation criteria: T/C (%)>40 is invalid; • T/C (%)≤40, and P<0.05 is effective after statistical processing. 4.

[2] = test system: breast cancer cell line SUM159 sphere; assay: Breast cancer stem cell sphere formation; assay type: cell-based, human; details: 50 nM; for formation of the sphere after cell passage: 5 days of drug treatment, then passage
Procedure: The inhibitory effects of embodiment compounds 5, 7, 11, 13, 14, 20 and 21 on the formation of breast cancer cell line SUM159 sphere are described as follows.
The breast cancer cell line SUM159 sphere was cultured with serum-free medium in an ultra-low adsorption plate, the basal medium was DMEM/F12 (without phenol red), and B27 (without vitamin A) (1×), EGF (20 ng/ml), bFGF (20 ng/ml) and insulin (insulin, 5 ug/ml) were added.
An equal number (4000) of SUM159 cells per well were inoculated into an ultra-low adsorption 24 plate, and the sphere was photographed after 5 days of culture, replaced with fresh medium, and treated with drugs at certain concentrations, respectively. Compounds 5, 7, 11, 13, 14, 20 and 21 were evaluated in this experiment at 50 nM, respectively. The effect of the drug on the sphere phenotype could be observed after about 3 days of drug treatment. The sphere was photographed again after 5 days of drug treatment, and then the sphere was passaged. The sphere was photographed again after 7 days of passage.
The differences of the photographs taken in three different stages were counted and compared, and the killing effect of the tested compounds on SUM159 sphere was evaluated through the differences of sphere formation after passage, thus reflecting the inhibitory effects of different compounds on breast cancer stem cells.

[3] = test system: xenograft of human lung cancer NCI-H522 in nude mice; assay: Xenograft tumor growth inhibition, NCI-H522; assay type: in vivo, BALB/c nude mice; details: iv., q4d × 6
Procedure: as §2, §3, §4, §5, §6, §7

[4] = 16 mg/kg, intravenous injection every other day × 9
[5] = 20 mg/kg, intravenous injection every other day × 3
[6] = 20 mg/kg, intravenous injection every other day × 9

SMILES	GI50 (HCT116 (colon cancer)) [nM]	GI50 (K562 (leukemia)) [nM]	GI50 (PC-3 (prostate cancer)) [nM]	Relative tumor proliferation rate (%) [1, 4] [%]	Tumor weight inhibition rate (%) [1, 4] [%]	efficacy evaluation on growth of HCT-116 xenograft (in words) [1]	killing effect on SUM159 sphere [2]	formation of the sphere after cell passage [2]	T/C (%) ([3]; 12.5 mg/kg)	Tumor weight inhibition (%) ([3]; 12.5 mg/kg)	T/C (%) ([3]; 25 mg/kg)	Tumor weight inhibition (%) ([3]; 25 mg/kg)	T/C (%) ([3]; 50 mg/kg)	Tumor weight inhibition (%) ([3]; 50 mg/kg)	Relative tumor proliferation rate (%) [1, 5] [%]	Tumor weight inhibition rate (%) [1, 5] [%]	Relative tumor proliferation rate (%) [1, 6] [%]	Tumor weight inhibition rate (%) [1, 6] [%]
[2H]C([2H])([2H])Oc1cc(C(=O)Nc2cc3c(cc2Oc2cc(C)cc(C)c2)C(=O)N(C)[C@@H](CC(=O)N(C)C)C(=O)N3)c(Br)c(OC([2H])([2H])[2H])c1OC([2H])([2H])[2H] [Compound 16, (S)-2-bromo-N-[3-[2-(dimethylamino)-2-oxoethyl]-7-(3,5-dimethylphenoxy)-4-methyl-2,5-dioxo-2,3,4,5-tetrahydro-1H-benzo[e][1,4]diazepin-8-yl]-3,4,5-tris(trideuteromethoxy)benzamide]	< 5	< 5	< 5	38	63.4	inhibit the growth												
[2H]C([2H])([2H])Oc1cc(C(=O)Nc2cc3c(cc2Oc2cc(C)cc(C)c2)C(=O)N[C@@H](CC(=O)N(C([2H])([2H])C([2H])([2H])[2H])C([2H])([2H])C([2H])([2H])[2H])C(=O)N3)c(Br)c(OC([2H])([2H])[2H])c1OC([2H])([2H])[2H] [Compound 5, (S)-2-bromo-N-[3-[2-[bis(pentadeuteroethyl)amino]-2-oxoethyl]-7-(3,5-dimethylphenoxy)-2,5-dioxo-2,3,4,5-tetrahydro-1H-benzo[e][1,4]diazepin-8-yl]-3,4,5-tris(trideuteromethoxy)benzamide]	< 5	< 5	< 5			inhibit the growth	strong killing effect	significantly reduced	31.7	72.03	21.2	84.20	14.2	90.02	34	69.6		
[2H]C([2H])([2H])Oc1cc(C(=O)Nc2cc3c(cc2Oc2cc(C)cc(C)c2)C(=O)N[C@@H](CC(=O)N(C)C)C(=O)N3)c(Br)c(OC([2H])([2H])[2H])c1OC([2H])([2H])[2H] [Compound 20, (S)-2-bromo-N-[3-[2-(dimethylamino)-2-oxoethyl]-7-(3,5-dimethylphenoxy)-2,5-dioxo-2,3,4,5-tetrahydro-1H-benzo[e][1,4]diazepin-8-yl]-3,4,5-tris(trideuteromethoxy)benzamide]	< 5	< 5	< 5			inhibit the growth	strong killing effect	significantly reduced									30	75.4
